The subject of experiment [1] is 253G1 hiPS cell-derived neurons. As to the kind of experiment: MEA measurement of drug response (number of spikes) of 253G1 hiPS cell-derived neurons. In kind it is cell-based, human. The settings on record: 4-AP final concentration 100 μM. The method, then: iPS cell-derived neurons (253G1 hiPS cell-derived neuron or XCL-1 NEURONS (XCell Science, catalog number XN-001-1V)) were seeded on the oriented PLGA fiber sheet as a cell scaffold at 13×10^5 cells/cm^2. 253G1 hiPS cell-derived neurons were cultured in N2B27 medium with or without 20% ACM, and the XCL-1 NEURONS are cultured in BrainPhys (registered trademark) Neuronal Medium (05792, STEMCELL TECHNOLOGIES) with or without 20% ACM in an incubator at 5% CO2 and 37° C. for 4 or 6 weeks. The fiber sheet was placed on an MEA probe (MED64 system, Alpha MED Scientific Inc.), and made the cells contact with the electrodes of MEA probe to measure neural activity (spikes). As a control, neurons were similarly seeded directly on a probe (electrodes) based on a conventional method, and cultured in an incubator at 5% CO2 and 37° C. for 4 or 6 weeks. The obtained results were compared with those given by a conventional method (direct seeding to a probe). A larger number of spikes were detected in 253G1 hiPS cell-derived neurons on the fiber sheet at 4-week culture (FIG. 7a). […] In the measurement system, 4-aminopyridine (4-AP), known to have a function of inhibiting various potassium channels in neurons and maintaining neuronal action potential, was added to the neurons cultured for 4 weeks at a final concentration of 100 μM, and then the spikes were measured. As a result, the number of spikes was increased both in the control group and in the fiber sheet group by the addition of 4-aminopyridine, and appropriate drug response was also confirmed (FIG. 7a).

The test system of experiment [2] is iPS cell-derived neurons XCL-1 NEURONS. Put plainly: MEA measurement of drug response (spikes, bursts, synchronous bursts) of XCL-1 NEURONS on oriented PLGA fiber sheet. Type of experiment: cell-based, human. The settings on record: 4-AP final concentration 100 μM. Here is the method:
iPS cell-derived neurons (253G1 hiPS cell-derived neuron or XCL-1 NEURONS (XCell Science, catalog number XN-001-1V)) were seeded on the oriented PLGA fiber sheet as a cell scaffold at 13×10^5 cells/cm^2. 253G1 hiPS cell-derived neurons were cultured in N2B27 medium with or without 20% ACM, and the XCL-1 NEURONS are cultured in BrainPhys (registered trademark) Neuronal Medium (05792, STEMCELL TECHNOLOGIES) with or without 20% ACM in an incubator at 5% CO2 and 37° C. for 4 or 6 weeks. The fiber sheet was placed on an MEA probe (MED64 system, Alpha MED Scientific Inc.), and made the cells contact with the electrodes of MEA probe to measure neural activity (spikes). As a control, neurons were similarly seeded directly on a probe (electrodes) based on a conventional method, and cultured in an incubator at 5% CO2 and 37° C. for 4 or 6 weeks. The obtained results were compared with those given by a conventional method (direct seeding to a probe). A larger number of spikes were detected in 253G1 hiPS cell-derived neurons on the fiber sheet at 4-week culture (FIG. 7a). […] In the measurement system, 4-aminopyridine (4-AP), known to have a function of inhibiting various potassium channels in neurons and maintaining neuronal action potential, was added to the neurons cultured for 4 weeks at a final concentration of 100 μM, and then the spikes were measured. As a result, the number of spikes was increased both in the control group and in the fiber sheet group by the addition of 4-aminopyridine, and appropriate drug response was also confirmed (FIG. 7a). […] The cells were cultured in BrainPhys (registered trademark) Neuronal Medium (05792, STEMCELL TECHNOLOGIES) containing 20% ACM in an incubator at 5% CO2 and 37° C. for 2, 4, and 6 weeks. The obtained cell sheet (nerve cell device) was placed on an MEA probe (MED64 system, Alpha MED Scientific Inc.) and made the cells contact with the electrodes of MEA probe to measure neural activity (spikes and bursts). In the measurement system, 4-aminopyridine (4-AP), known to maintain a neural action potential was added at a final concentration of 100 μM to examine the drug response of neurons. MED 64 Burstscope (Alpha MED Scientific Inc.) was used for analyzing neural activity. About the cell sheet obtained by culturing for 4 weeks, the result of analyzing the number of spikes is shown in FIG. 8a, and the result of analyzing the number of synchronous bursts is shown in FIG. 8b. […] Furthermore, the result of analyzing neural activity by raster plots for a cell sheet obtained by culturing for 6 weeks is shown in FIG. 8c.

The mark [3] stands for this setting: seeded at 24×10^5 cells/cm^2 on oriented PLGA fiber sheet, 20% ACM, cultured 4 weeks.

Experimental findings from patent US11543404B2, “Nerve cell device and method for evaluating neural activity” (Stem Cell & Device Laboratory, Inc., priority 2017, dated 2023) are described below.

Regarding `Nc1ccncc1` [4-aminopyridine], the “increase in the number of spikes” value in experiment [1] (control group cultured directly on the MEA probe, 4 weeks) stood at 156%; in experiment [1] (fiber sheet group cultured in medium with 20% ACM, 4 weeks), 194%; in experiment [1] (neurons on oriented PLGA fiber sheet (fiber sheet group), cultured 4 weeks), 167%; in experiment [2] (setting [3]), 499%. Also, the “increase in the number of synchronous bursts” value in experiment [2] (setting [3]) is listed as 375%. Also, in experiment [2] (seeded at 24×10^5 cells/cm^2 on oriented PLGA fiber sheet, 20% ACM, cultured 6 weeks), the “number of spikes and synchronous bursts (raster plots)” value is listed as “remarkable increase”. Further, the “increase in the number of bursts” value in experiment [2] (seeded on fiber sheet at 12×10^5 cells/cm^2, cultured 6 weeks in medium with ACM) was 2.6 fold.
